SMILES strings stand for the structures.

One assay has as its system thrombocyte aggregation. Description: Born test: inhibition of the second phase of adrenalin induced thrombocyte aggregation in platelet-rich plasma (PRP). The format is cell-based, human. To be noted: Homo sapiens, at 5 × 10^-5 m, induced by 5×10^-6 m adrenalin, read-out: Percent Inhibition Of Thrombocyte Aggregation. An excerpt:
In a series of determinations utilizing the Born test, venous blood from metabolically healthy persons was mixed with sodium citrate in a ratio of 9:1 and the erythrocytes precipitated by centrifuging at 150 g. The filtrate is enriched in thrombocytes and this filtrate is designated as platelet-rich plasma (PRP). One aliquot of the PRP is placed in the cuvette of an aggregometer (Universal Aggregometer, manufactured by Braun Melsungen, West Germany) and stirred with a magnetic stirrer. The substance to be tested is added in the form of an aqueous solution at a pH of about 7. Changes in the light transmission of the suspension are continuously recorded. After spontaneous aggregation ceases, further aggregation is induced by the addition of 5×10^-6 m adrenalin, forming larger thrombocyte aggregates and increasing the light transmission through the suspension.
The adrenalin induced aggregation takes place in two phases, i.e., the light transmission initially increases, then stagnates temporarily, and then increases again. Only the second phase of the aggregation can be influenced by aggregation inhibitors. For an evaluation of the results there is first established, in a control experiment using no test compound, the angle of the second aggregation phase against the horizontal for adrenalin induced aggregation and this is designated as 0% inhibition. Utilizing the same PRP, the test compound is added and aggregation is induced with adrenalin, and the course of aggregation continuously recorded. The angle of the second aggregation phase against the horizontal is again determined and the relationship of this angle against the angle determined in the control experiment yields the percent inhibition of the second phase of the thrombocyte aggregation.
The standard material "Colfarit" (acetylsalicylic acid) yields 100% inhibition at a concentration of 10^-4 m and 0% inhibition at a concentration of 5×10^-5 m. At the latter concentration the inventive compounds yielded the following results: […]
Usually inhibition stands for the percentage by which the read-out fell short of the control. `CC(C)(Oc1ccc(CCNS(=O)(=O)c2ccc(Cl)cc2)cc1)C(=O)O` [2-{4-[2-(4-Chlorobenzenesulphonylamino)-ethyl]-phenoxy}-2-methylpropionic acid]: the inhibition at 50 µM was determined as 100%. Same read-out and setting: under `CC(C)(Oc1ccc(CCNS(=O)(=O)c2ccccc2)cc1)C(=O)O` [2-{4-[2-(Benzenesulphonylamino)-ethyl]-phenoxy}-2-methylpropionic acid] stands 20%; under `O=C(O)COc1ccc(CNS(=O)(=O)c2ccccc2)cc1` [4-(Benzenesulphonylaminomethyl)-phenoxyacetic acid], 20%.

As for `O=C(O)COc1ccc(CCNS(=O)(=O)c2cccc3ccccc23)cc1` [4-[2-(1-naphthalenesulphonylamino)-ethyl]-phenoxyacetic acid], the inhibition at 50 µM worked out at 100%.

As for `O=C(O)COc1ccc(CCNS(=O)(=O)c2ccc(F)cc2)cc1` [4-[2-(4-Fluorobenzenesulphonylamino)-ethyl]-phenoxyacetic acid], the inhibition at 50 µM amounted to 100%. Consider `CC(=O)c1ccc(S(=O)(=O)NCCc2ccc(OCC(=O)O)cc2)cc1` [4-[2-(4-acetylbenzenesulphonylamino)-ethyl]-phenoxyacetic acid], for which the inhibition at 50 µM came to 100%. On to `O=C(O)COc1ccc(CCNS(=O)(=O)c2ccc(Cl)cc2)cc1` [4-[2-(4-chlorobenzenesulphonylamino)-ethyl]-phenoxyacetic acid], for which the inhibition at 50 µM is 100%. On to `CC(CO)NC(=O)COc1ccc(CCNS(=O)(=O)c2ccccc2)cc1` (stereo not drawn) [4-[2-(Benzenesulphonylamino)-ethyl]-phenoxyacetic acid 1-hydroxy-2-propylamide], for which the inhibition at 50 µM was 10%.

For the compound `CCOC(=O)CCNC(=O)COc1ccc(CCNS(=O)(=O)c2ccccc2)cc1` [4-[2-(Benzenesulphonylamino)-ethyl]-phenoxyacetic acid 2-ethoxycarbonylethylamide], the inhibition at 50 µM turned out to be 100%. `O=C(O)COc1ccc(CCNS(=O)(=O)c2ccccc2)cc1` [4-[2-(Benzenesulphonylamino)-ethyl]-phenoxyacetic acid]: the inhibition at 50 µM is 100%.

On to `Cc1ccc(S(=O)(=O)NCCc2ccc(OCC(=O)O)cc2)cc1` [4-[2-(p-toluenesulphonylamino)-ethyl]-phenoxyacetic acid], for which the inhibition at 50 µM came out at 100%. For `O=C(O)COc1ccc(CCCNS(=O)(=O)c2ccccc2)cc1` [4-[3-(Benzenesulphonylamino)-propyl]-phenoxyacetic acid], the inhibition at 50 µM amounted to 100%.

Turning to `CC(=O)Oc1ccccc1C(=O)O` [Colfarit, acetylsalicylic acid, reference compound], the inhibition at 50 µM turned out to be 0%. For `CC(C)OC(=O)COc1ccc(CCNS(=O)(=O)c2ccccc2)cc1` [Isopropyl 4-[2-(benzenesulphonylamino)-ethyl]-phenoxyacetate], the inhibition at 50 µM amounted to 100%.

The same assay, now with this note: at 10^-4 m, induced by adrenalin.
As for `CC(=O)Oc1ccccc1C(=O)O` [Colfarit, acetylsalicylic acid, reference compound], the “inhibition of thrombocyte aggregation” value is on record as 100%.

These data come from patent US4258058A, “Phenoxyalkylcarboxylic acid compounds and thrombocyte-aggregation inhibition” (Boehringer Mannheim GmbH, priority 1978, dated 1981).
